Measurements published in patent US12643887B2, “Heterocyclic derivatives with cardiomyocyte proliferation activity for treatment of heart diseases” (Tongji University, priority 2019, dated 2026).

What was measured:
[1] = system: Neonatal Rat Ventricular Myocytes (NRVMs); assay: Myocyte proliferation assay (EdU assay) in neonatal rat ventricular myocytes; format: cell-based; details: growth relative to blank myocyte growth without compound added; for Avg 1 uM (average myocyte proliferation): compound 1 uM; for Avg 3 uM (average myocyte proliferation): compound 3 uM; for Avg 10 uM (average myocyte proliferation): compound 10 uM
Outline: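 After 36 h compound exposure (1, 3 or 10 uM in 6% FBS/ITS DMEM, following 24 h low-serum culture), NRVMs were pulsed with EdU for 12 h. Proliferation scored by automated confocal imaging of EdU click chemistry, ab8295 immunostaining and DAPI nuclei in fixed cultures.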

[2] = target: T1, human HIPK1 (Homo sapiens, UniProt Q86Z02); assay: HIPK1 enzyme assay (ADP-Glo); format: biochemical; details: ADP-Glo, ATP 5 μM; read-out: HIPK1 IC50
T1 construct: Recombinant human HIPK1 (156-555); GST (N); purchased SignalChem H03-11G; host or cells: Sf9 insect cells
T1 sequence (Q86Z02 156-555): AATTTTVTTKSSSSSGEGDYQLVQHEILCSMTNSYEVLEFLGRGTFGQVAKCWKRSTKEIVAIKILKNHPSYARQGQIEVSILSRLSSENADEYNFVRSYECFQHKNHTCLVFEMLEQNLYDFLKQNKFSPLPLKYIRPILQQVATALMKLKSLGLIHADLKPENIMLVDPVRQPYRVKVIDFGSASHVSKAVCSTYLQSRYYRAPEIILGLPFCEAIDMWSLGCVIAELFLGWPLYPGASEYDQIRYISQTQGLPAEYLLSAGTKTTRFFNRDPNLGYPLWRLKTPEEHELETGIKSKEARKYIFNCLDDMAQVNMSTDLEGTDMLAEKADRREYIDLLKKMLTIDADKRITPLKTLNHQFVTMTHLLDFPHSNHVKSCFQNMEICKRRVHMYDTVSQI
Outline: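 Recombinant GST-tagged HIPK1 (156-555, Sf9), 4 nM, preincubated 30 min at 25° C with compound in Tris pH 7.5/MgCl2/BSA/DTT, then reacted 90 min with 0.05 mg/ml MBP and 5 μM ATP. ADP formed read by ADP-Glo luminescence; IC50 from four-parameter logistic fit of % inhibition versus Max/Min controls.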

SMILES | Avg 1 uM (average myocyte proliferation) [1] | Avg 3 uM (average myocyte proliferation) [1] | Avg 10 uM (average myocyte proliferation) [1] | IC50 [2] [µM]
COc1ccc(N(C)C2=N/C(=C\c3ccc4ncsc4c3)C(=O)N2)cc1 [Example 38, (Z)-5-(benzo[d]thiazol-6-ylmethylene)-2-((4-methoxyphenyl)(methyl)amino)-3,5-dihydro-4H-imidazol-4-one] | *** (>50%) | ** (10%-50%) | *** (>50%) | 1 to 10
O=C1NC(N(CC2CC2)c2ccccc2)=N/C1=C\c1ccc2c(c1)OCCO2 [Example 39, (Z)-2-((cyclopropylmethyl)(phenyl)amino)-5-((2,3-dihydrobenzo[b][1,4]dioxin-6-yl)methylene)-3,5-dihydro-4H-imidazol-4-one] | *** (>50%) | ** (10%-50%) | * (<10% growth relative to blank myocyte growth without compound added.) | > 10
O=C1NC(Nc2ccc(Cl)cc2)=N/C1=C\c1ccc2ncsc2c1 [Example 40, (Z)-5-(benzo[d]thiazol-6-ylmethylene)-2-((4-chlorophenyl)amino)-3,5-dihydro-4H-imidazol-4-one] | *** (>50%) | *** (>50%) | *** (>50%) | 1 to 10
O=C1NC(N(Cc2ccccc2)c2ccccc2)=N/C1=C\c1ccc2ncsc2c1 [Example 41, (Z)-5-(benzo[d]thiazol-6-ylmethylene)-2-(benzyl(phenyl)amino)-3,5-dihydro-4H-imidazol-4-one] | * (<10% growth relative to blank myocyte growth without compound added.) | * (<10% growth relative to blank myocyte growth without compound added.) | ** (10%-50%) | > 10
O=C1/C(=C/c2ccc3ncsc3c2)N=C(N(Cc2ccccc2)c2ccccc2)N1Cc1ccccc1 [Example 42, (Z)-5-(benzo[d]thiazol-6-ylmethylene)-3-benzyl-2-(benzyl(phenyl)amino)-3,5-dihydro-4H-imidazol-4-one] | ** (10%-50%) | ** (10%-50%) | *** (>50%) | > 10
CN(C1=N/C(=C\c2ccc3ncsc3c2)C(=O)N1)c1ccc([N+](=O)[O-])cc1 [Example 43, (Z)-5-(benzo[d]thiazol-6-ylmethylene)-2-(methyl(4-nitrophenyl)amino)-3,5-dihydro-4H-imidazol-4-one] | ** (10%-50%) | ** (10%-50%) | ** (10%-50%) | > 10
CN(C1=N/C(=C\c2ccc3ncsc3c2)C(=O)N1)c1ccc(N)cc1 [Example 44, (Z)-2-((4-aminophenyl)(methyl)amino)-5-(benzo[d]thiazol-6-ylmethylene)-3,5-dihydro-4H-imidazol-4-one] | *** (>50%) | ** (10%-50%) | ** (10%-50%) | 1 to 10
CC(C)NC1=N/C(=C\c2ccc3ncsc3c2)C(=O)N1C [Example 45, (Z)-5-(benzo[d]thiazol-6-ylmethylene)-2-(isopropylamino)-3-methyl-3,5-dihydro-4H-imidazol-4-one] | ** (10%-50%) | ** (10%-50%) | ** (10%-50%) | 1 to 10
Cn1cnc2ccc(/C=C3\N=C(Nc4ccccc4)NC3=O)cc21 [Example 46, (Z)-5-((1-methyl-1H-benzo[d]imidazol-6-yl)methylene)-2-(phenylamino)-3,5-dihydro-4H-imidazol-4-one] | *** (>50%) | ** (10%-50%) | *** (>50%) | 0.1 to 1
O=C1NC(Nc2ccc3ncsc3c2)=N/C1=C\c1ccc2c(c1)OCO2 [Example 47, (Z)-5-(benzo[d][1,3]dioxol-5-ylmethylene)-2-(benzo[d]thiazol-6-ylamino)-3,5-dihydro-4H-imidazol-4-one] | *** (>50%) | *** (>50%) | *** (>50%) | > 10
O=C1NC(Nc2ccc3ncsc3c2)=N/C1=C\c1ccc2ncsc2c1 [Example 48, (Z)-2-(benzo[d]thiazol-6-ylamino)-5-(benzo[d]thiazol-6-ylmethylene)-3,5-dihydro-4H-imidazol-4-one] | *** (>50%) | *** (>50%) | *** (>50%) | 0.1 to 1
CC(C)NC1=N/C(=C\c2ccc3scnc3c2)C(=O)N1 [Example 49, (Z)-5-(benzo[d]thiazol-5-ylmethylene)-2-(isopropylamino)-3,5-dihydro-4H-imidazol-4-one] | * (<10% growth relative to blank myocyte growth without compound added.) | ** (10%-50%) | *** (>50%) | > 10
O=C1NC(NC23CC4CC(CC(C4)C2)C3)=N/C1=C\c1ccc2scnc2c1 [Example 50, (Z)-2-(adamantan-1-ylamino)-5-(benzo[d]thiazol-5-ylmethylene)-3,5-dihydro-4H-imidazol-4-one] | * (<10% growth relative to blank myocyte growth without compound added.) | * (<10% growth relative to blank myocyte growth without compound added.) |  | > 10
O=C1NC(Nc2ccccc2)=N/C1=C\c1ccc2[nH]ccc2c1 [Example 51, (Z)-5-((1H-indol-5-yl)methylene)-2-(phenylamino)-3,5-dihydro-4H-imidazol-4-one] | ** (10%-50%) | ** (10%-50%) | ** (10%-50%) | > 10
O=C1NC(Nc2ccccc2)=N/C1=C\c1ccc2occc2c1 [Example 52, (Z)-5-(benzofuran-5-ylmethylene)-2-(phenylamino)-3,5-dihydro-4H-imidazol-4-one] | ** (10%-50%) | ** (10%-50%) | ** (10%-50%) | > 10
O=C1NC(Nc2ccccc2)=N/C1=C\c1ccc2ncccc2c1 [Example 53, (Z)-2-(phenylamino)-5-(quinolin-6-ylmethylene)-3,5-dihydro-4H-imidazol-4-one] | ** (10%-50%) | *** (>50%) | ** (10%-50%) | > 10
O=C1NC(Nc2ccccc2)=N/C1=C\c1ccc2cn[nH]c2c1 [Example 54, (Z)-5-((1H-indazol-6-yl)methylene)-2-(phenylamino)-3,5-dihydro-4H-imidazol-4-one] | * (<10% growth relative to blank myocyte growth without compound added.) | * (<10% growth relative to blank myocyte growth without compound added.) |  | > 10
O=C1NC(Nc2ccccc2)=N/C1=C\c1ccc2[nH]ncc2c1 [Example 55, (Z)-5-((1H-indazol-5-yl)methylene)-2-(phenylamino)-3,5-dihydro-4H-imidazol-4-one] | * (<10% growth relative to blank myocyte growth without compound added.) | * (<10% growth relative to blank myocyte growth without compound added.) |  | > 10
O=C1NC(Nc2ccccc2)=N/C1=C\c1ccc2nn[nH]c2c1 [Example 56, (Z)-5-((1H-benzo[d][1,2,3]triazol-6-yl)methylene)-2-(phenylamino)-3,5-dihydro-4H-imidazol-4-one] | * (<10% growth relative to blank myocyte growth without compound added.) | * (<10% growth relative to blank myocyte growth without compound added.) |  | > 10
O=C1NC(Nc2ccc3ncsc3c2)=N/C1=C\c1ccc2scnc2c1 [Example 57, (Z)-5-(benzo[d]thiazol-5-ylmethylene)-2-(benzo[d]thiazol-6-ylamino)-3,5-dihydro-4H-imidazol-4-one] | * (<10% growth relative to blank myocyte growth without compound added.) | * (<10% growth relative to blank myocyte growth without compound added.) |  | < 0.1
O=C1NC(Nc2ccc3ncsc3c2)=N/C1=C\c1ccc2[nH]ccc2c1 [Example 58, (Z)-5-((1H-indol-5-yl)methylene)-2-(benzo[d]thiazol-6-ylamino)-3,5-dihydro-4H-imidazol-4-one] | * (<10% growth relative to blank myocyte growth without compound added.) | * (<10% growth relative to blank myocyte growth without compound added.) |  | > 10
O=C1NC(Nc2ccc3ncsc3c2)=N/C1=C\c1ccc2occc2c1 [Example 59, (Z)-2-(benzo[d]thiazol-6-ylamino)-5-(benzofuran-5-ylmethylene)-3,5-dihydro-4H-imidazol-4-one] | * (<10% growth relative to blank myocyte growth without compound added.) | * (<10% growth relative to blank myocyte growth without compound added.) |  | > 10
